Like-named read-outs stand apart in the source and are kept apart here.
What was measured:
[1] = system: P. falciparum Dd2 (PfLuc) line expressing firefly luciferase, asexual blood stage; experiment: microbe, parasite or virus in culture; type: cell-based, Plasmodium falciparum; conditions: Plasmodium falciparum
P. falciparum Dd2 = experiment: SYBR green I asexual blood stage proliferation assay (96 h); type: cell-based, Plasmodium falciparum; conditions: for IC50 / Emax: Plasmodium falciparum
[2] = DD2, read-out: CDD P. falciparum Luciferase ABS 11-pt Reconfirmation Dose Response (48hr): IC50 (μM), 11-pt dose response, 48hr
[3] = DD2, 8-pt dose response, 96hr, read-out: CDD P. falciparum Luciferase ABS 8-pt Reconfirmation Dose Response (96hr): IC50
[4] = DD2, 8-pt dose response, 96hr, read-out: CDD P. falciparum Luciferase ABS 8-pt Reconfirmation Dose Response (96hr): Maximum inhibition (%)
[5] = DD2, 11-pt dose response, 48hr, read-out: CDD P. falciparum Luciferase ABS 11-pt Reconfirmation Dose Response (48hr): Maximum inhibition (%)
[6] = DD2, 11-pt dose response, 96hr, read-out: CDD P. falciparum Luciferase ABS 11-pt Reconfirmation Dose Response (96hr): IC50
[7] = DD2, 11-pt dose response, 96hr, read-out: CDD P. falciparum Luciferase ABS 11-pt Reconfirmation Dose Response (96hr): Maximum inhibition (%)
[8] = DD2, Sybr Green I, 11-pt dose response, 96hr, read-out: CDD P. falciparum Sybr Green I ABS 11-pt Reconfirmation Dose Response (96hr): IC50
[9] = DD2, Sybr Green I, 11-pt dose response, 96hr, read-out: CDD P. falciparum Sybr Green I ABS 11-pt Reconfirmation Dose Response (96hr): Maximum inhibition (%)
[10] = DD2, read-out: P. falciparum Luciferase ABS 11-pt Reconfirmation Dose Response (48hr): IC50, 11-pt dose response, 48hr
[11] = DD2, 8-pt dose response, 96hr, read-out: P. falciparum Luciferase ABS 8-pt Reconfirmation Dose Response (96hr): IC50
[12] = DD2, 11-pt dose response, 96hr, read-out: P. falciparum Luciferase ABS 11-pt Reconfirmation Dose Response (96hr): IC50
[13] = DD2, 11-pt dose response, 96hr, read-out: P. falciparum Luciferase ABS 11-pt Reconfirmation Dose Response (96hr): Maximum inhibition (%)
[14] = DD2, 11-pt dose response, 96hr, read-out: P. falciparum Sybr Green I ABS 11-pt Reconfirmation Dose Response (96hr): IC50
[15] = DD2, 11-pt dose response, 96hr, read-out: P. falciparum Sybr Green I ABS 11-pt Reconfirmation Dose Response (96hr): Maximum inhibition (%)
[16] = DD2, 8-pt dose response, 96hr, read-out: P. falciparum Luciferase ABS 8-pt Reconfirmation Dose Response (96hr): Maximum inhibition (%)
[17] = DD2, 11-pt dose response, 48hr, read-out: P. falciparum Luciferase ABS 11-pt Reconfirmation Dose Response (48hr): Maximum inhibition (%)

Compound	IC50 [1, 2] [µM]	IC50 [1, 3] [µM]	Emax [1, 4] [%]	Emax [1, 5] [%]	IC50 [1, 6] [µM]	Emax [1, 7] [%]	IC50 (P. falciparum Dd2; [8]) [µM]	Emax (P. falciparum Dd2; [9]) [%]	further results
CCN1CC(c2ccccc2)CC2(CCN(Cc3ncc[nH]3)CC2)C1 (stereo not shown) [DDD01246660]	7.46	0.79	90.9	59	3.35	85.5	3.39	89.2	
Cc1ccc2[nH]c(-c3cn(C4CCNCC4)nn3)nc2c1C [DDD01246711]	2.21	0.43	94.9	79.2	2.07	99.2	4.36	79.6	
Cc1cccc(CN2CCC(Cc3ccccc3F)CC2)n1 [DDD01246731]									IC50 [1, 10]: 2.01 µM; IC50 [1, 11]: 1.12 µM; IC50 [1, 12]: 0.529 µM; Emax [1, 13]: 100%; IC50 (P. falciparum Dd2; [14]): 5.16 µM; Emax (P. falciparum Dd2; [15]): 92.8%
CCN1CCN(C[C@@H]2CN(c3ncc(Cl)cc3F)C[C@@H]2CO)CC1 [DDD01246828]	1.58	0.63	94.8	98.3	0.961	99.3	1.11	100	
CN[C@@H](C)C(=O)N(Cc1cccc(C)c1)Cc1ccccc1OC [DDD01246872]	1.7	0.47	85.5	61.6	0.75	89.6	1.07	62.7	
CN(Cc1ccccc1-n1cccn1)C[C@@H]1CCCN2CCCC[C@H]12 [DDD01246904]									IC50 [1, 10]: > 12.5 µM; IC50 [1, 11]: 1.88 µM; Emax [1, 16]: 85.8%; Emax [1, 17]: 53.8%; IC50 [1, 12]: 3.73 µM; Emax [1, 13]: 73.6%; IC50 (P. falciparum Dd2; [14]): 8.42 µM; Emax (P. falciparum Dd2; [15]): 72.9%
Cc1cc(-n2cccn2)ccc1CN1CCOCC(CN(C)C)C1 (stereo not shown) [DDD01247138]	> 12.5	0.9	83	48	5.64	81.9	> 4.16	60.8	
CC(C)CN1CCCC1c1ccc(C(=O)Nc2cccnc2)s1 (stereo not shown) [DDD01247321]	4.09	0.77	91.9	94.3	2.12	99.9	4.77	91.6	
CCN(CC)CCN(C)c1nc(-c2ccc(Cl)cc2)nc2c1CNC2 [DDD01247796]									IC50 [1, 10]: 3.45 µM; IC50 [1, 11]: 1.5 µM; Emax [1, 16]: 94.9%; Emax [1, 17]: 74.2%; IC50 [1, 12]: 2.79 µM; Emax [1, 13]: 99.3%; IC50 (P. falciparum Dd2; [14]): 4.27 µM; Emax (P. falciparum Dd2; [15]): 89.9%
COc1cccc(CN(C)Cc2[nH]c3ccccc3c2C)c1O [DDD01247848]	1.95	0.44	94.4	95.9	0.908	98.6	1.05	98	
Cc1cccnc1[C@H](C)Nc1nc(-c2cccnc2)nc2c1CNC2 [DDD01248607]									IC50 [1, 10]: 1.59 µM; IC50 [1, 11]: 1.6 µM; Emax [1, 16]: 92.2%; Emax [1, 17]: 79.2%; IC50 [1, 12]: 1.37 µM; Emax [1, 13]: 99.4%; IC50 (P. falciparum Dd2; [14]): 3.91 µM; Emax (P. falciparum Dd2; [15]): 91.2%
NC1(C(=O)NCC2CCCN(Cc3ccccc3F)C2)CCCC1 (stereo not shown) [DDD01249015]	> 12.5	0.62	89.1	55.5	1.47	87.8	> 4.16	77.3	
c1ccc(Oc2nccc3occc23)c(CN2CCCCC2)c1 [DDD01249169]	> 12.5	0.69	87.1	34.1	1.52	78.9	7.19	73.8	
CC(C)[C@@H]1CN(C(=O)C2(c3ccccc3)CCN(C)CC2)C[C@H]1N(C)C [DDD01249452]	6.23	0.83	90.5		2.18	95.6	3.27	87.8	
CCc1ccc(CN(CCN(C)C)Cc2ccc(C)s2)nc1 [DDD01249772]									IC50 [1, 10]: 1.02 µM; IC50 [1, 11]: 1.2 µM; Emax [1, 16]: 90.5%; Emax [1, 17]: 95.2%; IC50 [1, 12]: 0.278 µM; Emax [1, 13]: 101%; IC50 (P. falciparum Dd2; [14]): 3 µM; Emax (P. falciparum Dd2; [15]): 93.4%
CC(C)c1nccc(C2(c3ccccc3Cl)CCNCC2)n1 [DDD01250092]	3.82	1.08	86.6	58.4	1.95	90.3	5.4	74.3	
Cc1cccc2[nH]c(-c3cn(C4CCNCC4)nn3)nc12 [DDD01250141]	3.07	0.59	94.4	66.5	2.16	97.2	1.48	72.3	
O=C(c1scc2c1OCCO2)N1CCOC(CCc2ccccc2)C1 (stereo not shown) [DDD01250278]	1.39	0.55	93.1	97.2	0.767	100	1.47	101	
CCCn1ccnc1CN1CCCC1c1ccccn1 (stereo not shown) [DDD01250556]	4.66	0.46		53.8	1.47	94.8	11.9	68.5	
Cc1cc2nc(-c3cn(C4CCNCC4)nn3)[nH]c2cc1C [DDD01250700]	2.08	0.34	95.8	61.5	1.01	98.7	3.23	82	
CC(C)(C)CNCC1(O)CCCN(Cc2ccccc2F)C1=O (stereo not shown) [DDD01250810]	> 12.5	1.09	82.3	55.3	5.69	80.8	4.31	64.2	
CCCn1nccc1C(=O)N1CCN(C2CCc3ccccc3C2)CC1 (stereo not shown) [DDD01251134, CCCn1nccc1C(=O)N1CCN(CC1)C1CCc2ccccc2C1]									IC50 ([1]; DD2, read-out: CDD P. falciparum Luc 11pt dose response (96hr, n=2): IC50 (μM), 96hr, 11-point, n=2): 0.224 µM; IC50 ([1]; DD2, read-out: CDD P. falciparum Luciferase 11pt dose response (48hr, n=2): IC50 (μM), 48hr, 11-point, n=2): 0.205 µM; Emax ([1]; DD2, 48hr, 11-point, read-out: CDD P. falciparum Luciferase ABS 11-pt Reconfirmation Dose Response (48hr): Maximum inhibition (%)): 95.3%; Emax ([1]; DD2, 96hr, 11-point, read-out: CDD P. falciparum Luciferase ABS 11-pt Reconfirmation Dose Response (96hr): Maximum inhibition (%)): 100%; CDD P. falciparum Sybr Green I ABS Dd2 Dose Response: Maximum measured (%) (P. falciparum Dd2; Dd2, 96 h): 56.3%; IC50 (P. falciparum Dd2; DD2, 96 h, read-out: CDD P. falciparum Sybr Green I ABS Dd2 Dose Response: IC50): > 12.5 µM
Fc1ccccc1C1(CNC2CCOC3(CCOCC3)C2)CCCC1 (stereo not shown) [DDD01251139]	8.87	0.96	86.2	69.5	1.43	89.3	0.587	71.8	
Cc1nc(-c2cc(Cl)cc3c2OC(CN)C3)c[nH]1 (stereo not shown) [DDD01251343]	> 12.5	0.67		-0.28	3.7	84.3	> 1.39		
Cc1nc(C2CCNCC2)cc(N(C)Cc2cc3cc(F)ccc3[nH]2)n1 [DDD01251474]	2.3	0.99	93.3	98.2	0.415	100	3.2	90.9	
Cc1nccn1CCCN1CCCC(c2ccccc2)C1 (stereo not shown) [DDD01251840]	3.3	0.25	91.7	83.3	0.14	99.5	0.88	93.4	
OCc1csc(N2CCCC(COc3cccc(F)c3)C2)n1 (stereo not shown) [DDD01251951]									IC50 [1, 10]: > 12.5 µM; IC50 [1, 11]: 1.71 µM; Emax [1, 16]: 79.1%; Emax [1, 17]: 45.9%; IC50 [1, 12]: 3.99 µM; Emax [1, 13]: 82.9%; IC50 (P. falciparum Dd2; [14]): 1.63 µM; Emax (P. falciparum Dd2; [15]): 63%

— article PMC7155171, “Probing the Open Global Health Chemical Diversity Library for Multistage-Active Starting Points for Next-Generation Antimalarials” (ACS Infectious Diseases, 2020)
